Assays:
[1] = test system: mouse model of fibromyalgia (chronic widespread pain induced by intermittent cold stress); assay: Intermittent cold stress (ICS) mouse model of fibromyalgia; mechanical hyperalgesia, hindpaw withdrawal to 0.2-mN von Frey filament; format: in vivo, mice (female C57BL/6JNarl); conditions: for tolerance / therapeutic effect on repeated treatment: 1 mg/kg p.o. once a day for 4 days from day 5 after ICS
Experimental: Female C57BL/6JNarl mice aged 8-12 weeks were purchased from the National Laboratory Animal Center (Taipei, Taiwan). The fibromyalgia model was developed by Ueda's group, in which mice were treated with intermittent cold stress for 2 days (Nishiyori, M.; Ueda, H. Prolonged gabapentin analgesia in an experimental mouse model of fibromyalgia. Mol. Pain 2008, 4, 52). Mice treated with intermittent cold stress developed long-lasting (>2 weeks) mechanical and thermal hyperalgesia. Analgesic effects of compound I-a1 (JMF3737) via i.p. (in 0.5% HPβCD) or p.o. (in 1% HPβCD) routes and compound I-d1 (JMF4413) via i.p. (in 0.5% HPβCD) were tested in these mice 5 days after intermittent cold stress. Mechanical hyperalgesia was assayed by testing the withdrawal response of mouse hindpaws to 0.2-mN von Frey filament stimulation.

[2] = target: T1, NK1R receptor in muscle nociceptors (Mus musculus, UniProt P30548); assay: Whole-cell patch clamp recording on muscle nociceptors (outward current); format: cell-based
T1 construct: whole-cell patch clamp recording on muscle nociceptors; endogenous in cells; host or cells: muscle nociceptors (primary sensory neurons; preparation not described)
Source text: The JMF3737-induced outward current (IJMF3737) can cause nociceptor hyperpolarization and thus counteract the acid-induced depolarization in muscle nociceptors and thus inhibit pain associated with tissue acidosis.

[3] = Tolerated dose / safety range in the ICS mouse model; format: in vivo
Experimental: Female C57BL/6JNarl mice aged 8-12 weeks were purchased from the National Laboratory Animal Center (Taipei, Taiwan). […] Mechanical hyperalgesia was assayed by testing the withdrawal response of mouse hindpaws to 0.2-mN von Frey filament stimulation.

Bioavailability = conditions: in vivo; read-out: bioavailability (F)
Solubility = format: physicochemical
[4] = p.o. (oral gavage), ICS mouse model

T1 sequence (P30548 whole entry): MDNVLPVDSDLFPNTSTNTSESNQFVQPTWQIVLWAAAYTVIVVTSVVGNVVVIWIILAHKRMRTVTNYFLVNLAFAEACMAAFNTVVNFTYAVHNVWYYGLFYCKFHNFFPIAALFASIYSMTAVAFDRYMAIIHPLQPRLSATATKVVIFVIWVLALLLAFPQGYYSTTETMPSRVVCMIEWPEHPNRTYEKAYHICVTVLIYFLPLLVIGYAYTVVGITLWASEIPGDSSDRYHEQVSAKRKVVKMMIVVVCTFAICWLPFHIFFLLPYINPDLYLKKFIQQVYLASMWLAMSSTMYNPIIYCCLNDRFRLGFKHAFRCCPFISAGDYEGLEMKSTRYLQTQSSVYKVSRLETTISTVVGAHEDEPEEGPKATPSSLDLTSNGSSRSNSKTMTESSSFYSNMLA

O=C(O)CNC(=O)OC[C@H]1O[C@@H](n2cnc3c(NCc4ccc(O)cc4)ncnc32)C(O)C1O (stereo partly drawn) [I-a1, 5′-O-(Glycine-N-carbonyl)-N^6-(4-hydroxybenzyl)adenosine]
pain sensitivity to von Frey filament stimulation after repeated treatment ([1]; 1 mg/kg oral once a day for 4 days, since day 8, n=4): decreased pain sensitivity | acute analgesic effect during repeated treatment ([1]; 1 mg/kg oral once a day, day 5 to day 8, n=4): shows acute analgesic effect | tolerance / therapeutic effect on repeated treatment [1]: no tolerance but therapeutic effect | tolerance / therapeutic effect on repeated treatment ([1]; listed as JMF3737): does not cause tolerance | analgesic effect (in words) ([1]; 2 mg (4 μmol)/kg via oral route): appreciable analgesic effect | analgesic effect (in words) ([1]; ICS mouse model): superior analgesic effect to that of T1-11 | dose-dependent analgesic effect, effective dose starting from ([1]; i.p., ICS mouse model): 1 mg/kg | dose-dependent analgesic effect, effective dose starting from [1, 4]: 1 mg/kg | analgesic effect compared with T1-11 ([1]; via oral route): better analgesic effect over T1-11 | induced outward current (IJMF3737) inhibited by NK1R antagonist ([2]; JMF3737 10 μM with RP67580 10 μM, reversible inhibition): 15 pA | induced outward current (IJMF3737) ([2]; JMF3737 10 μM, muscle nociceptors): 40 pA | dose without causing appreciable detrimental effect ([3]; i.p. and p.o.): at least 64 mg/kg

CCCCNC(=O)OC[C@H]1O[C@@H](n2cnc3c(NCc4ccc(O)cc4)ncnc32)C(O)C1O (stereo partly drawn) [Compound 8, 5′-O-(n-Butylaminocarbonyl)-N^6-(4-hydroxybenzyl)adenosine]
melting point: 187.4 to 189 °C

O=C(O)CNC(=O)NC[C@H]1O[C@@H](n2cnc3c(NCc4ccc(O)cc4)ncnc32)C(O)C1O (stereo partly drawn) [I-d1, 5′-Deoxy-5′-(glycine-N-amido)-N^6-(4-hydroxybenzyl)adenosine]
analgesic effect (in words) ([1]; 64 mg/kg via i.p. route, n=2): good analgesic effect | analgesic effect (in words) ([1]; ICS mouse model): excellent analgesic effect | dose without causing appreciable detrimental effect ([3]; i.p.): 64 mg/kg

OC[C@H]1O[C@@H](n2cnc3c(NCc4ccc(O)cc4)ncnc32)[C@H](O)[C@@H]1O [T1-11, N^6-(4-hydroxybenzyl)adenosine, reference compound]
analgesic effect (in words) ([1]; ICS mouse model): excellent analgesic effect | dose-dependent analgesic effect, effective dose starting from ([1]; i.p., ICS mouse model): 0.03 mg/kg | dose-dependent analgesic effect, effective dose starting from [1, 4]: 8 mg/kg | bioavailability (Bioavailability): ~5% | solubility in dimethylsulfoxide (DMSO) (Solubility): good solubility

From patent US11753432B2, “Compound with analgesic effect for use in prevention and treatment of pain” (Academia Sinica, priority 2017, dated 2023)
